Results: US20050209157A1, “Short bioactive peptides and methods for their use” (priority 2001, published 2005)
Read-outs that look alike come from different tables or passages of the source. No end group written: not given here.

What was measured:
[1] = system: Pseudomonas aeruginosa ATCC 9027; experiment: Antimicrobial assay I, MIC by OD measurement; assay type: cell-based; conditions: 37° C. for 24 hours, absorbance 620 nm
[2] = system: Staphylococcus aureus ATCC 6538; experiment: Antimicrobial assay I, MIC by OD measurement; assay type: cell-based; conditions: 37° C. for 24 hours, absorbance 620 nm
WI38 = conditions: MTT, 24 hours with peptide; normal fibroblast line
[3] = system: yeast (Saccharomyces cerevisiae); experiment: Antimicrobial assay I, yeast assay in RPMI 1640; assay type: cell-based; conditions: RPMI 1640 media
[4] = system: human red blood cells (RBC); experiment: in vitro; assay type: cell-based; conditions: hemolytic assay, concentration at 50% hemolysis, 1 hour at 37° C.
HeLaS3 = experiment: Anti-cancer assay, MTT, LD50; assay type: cell-based; conditions: 24 hours with peptide, cervical carcinoma
Excerpt: (§1) Numbers are LD50 values (μg/mL).

SW480 = experiment: Anti-cancer assay, MTT, LD50; assay type: cell-based; conditions: SW480 colon adenocarcinoma line, 24 hours with peptide
Excerpt: as §1

MCF7 = experiment: Anti-cancer assay, MTT, LD50; assay type: cell-based; conditions: MCF7 breast adenocarcinoma line, MTT, 24 hours with peptide
Excerpt: as §1

BMKC = experiment: Anti-cancer assay, MTT, LD50; assay type: cell-based; conditions: BMKC cloned melanoma line, 24 hours with peptide
Excerpt: as §1

PC3 = experiment: Anti-cancer assay, MTT, LD50; assay type: cell-based; conditions: 24 hours with peptide, prostate adenocarcinoma
Excerpt: as §1

H1299 = experiment: Anti-cancer assay, MTT, LD50; assay type: cell-based; conditions: 24 hours with peptide, lung large cell carcinoma
Excerpt: as §1

[5] = system: tobramycin sensitive (ts) Pseudomonas ATCC 27853; experiment: Activity against drug resistant strains; assay type: cell-based; conditions: tobramycin sensitive strain
Procedure: (§2) Peptides were assayed for their activity against tobramycin sensitive and resistant strains.

[6] = system: clinical tobramycin resistant strain 960890198-3c; experiment: Activity against drug resistant strains; assay type: cell-based; conditions: for activity against clinical tobramycin resistant strain: strain 960890198-3c; for activity against tr Pseudomonas 960890198-3c: clinical tobramycin resistant strain, Table 47
Procedure: as §2

[7] = system: tobramycin resistant (tr) Pseudomonas ATCC 13096; experiment: Activity against drug resistant strains; assay type: cell-based; conditions: for activity against tobramycin resistant versus tobramycin sensitive Pseudomonas: ATCC 13096 (tr) compared with ATCC 27853 (ts); for activity against tr Pseudomonas 13096: tobramycin resistant strain, Table 46
Procedure: as §2

in vitro [8] = conditions: human, WI38 normal lung fibroblast cells, LD50 WI38, WI38 normal lung fibroblast line, MTT, 24 hours with peptide
collagen = experiment: Collagen stimulation, ELISA on fibroblast cell lines; assay type: cell-based
Procedure: (§3) Fibroblast cell lines were cultured under standard conditions and assayed for collagen and laminin using an ELISA system manufactured by Panvera (Madison, Wis.). Antibodies for collagen and laminin manufactured by Takara Shuzo Co., Ltd Japan. […] The other three peptides tested neither stimulated nor inhibited production (i.e. no effect was observed).

P. aeruginosa 27853 = experiment: Synergy between doxacycline and peptides, MBC; assay type: cell-based, Pseudomonas aeruginosa; conditions: for MBC, With doxacycline: doxacycline held at 10 ppm; for MBC, Without doxacycline: peptide alone
Excerpt: Synergy between doxacycline and various peptides was investigated against P. aeruginosa 27853. The following table illustrates the beneficial effects of combining doxacycline and the peptides, where the numbers are the minimum bactericidal concentration (MBC; μg/mL). When combined with the peptides, the doxacycline was held at 10 ppm concentration.

P. aeruginosa = assay type: cell-based, Pseudomonas aeruginosa; conditions: P. aeruginosa H744; MIC of nalidixic acid with peptide at ¼ MIC
Summary of the method: (§4)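 FIC index, computed as 0.25 plus the ratio of combination to single-agent antibiotic MIC, defines synergy when 0.5 or below. Peptide fixed at one quarter MIC while chloramphenicol or nalidixic acid was serially diluted two-fold; antibiotic-alone MICs served as baselines.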

P. aeruginosa H774 = assay type: cell-based, Pseudomonas aeruginosa; conditions: P. aeruginosa H744; nalidixic acid + peptide at ¼ MIC; 0.5 or less = synergy
Summary of the method: as §4

P. aeruginosa H374 = assay type: cell-based, Pseudomonas aeruginosa; conditions: for FIC Index: 0.5 or less = synergy
Summary of the method: as §4

in vitro [9] = assay type: cell-based, human; conditions: human, human red blood cells, pH 7, hemolytic assay, concentration at 50% hemolysis, 1 hour at 37° C.; read-out: LD50
laminin = experiment: Laminin stimulation, ELISA on fibroblast cell lines; assay type: cell-based
Procedure: as §3

S. pyogenes M76 = experiment: Antimicrobial assays II, NCCLS broth microdilution MIC; assay type: cell-based, Streptococcus pyogenes; conditions: mean of three; 16 to 20 hours at 35° C.
S. pneumoniae C719 = experiment: as above; assay type: cell-based, Streptococcus pneumoniae; conditions: mean of three, in µg/mL
S. pneumoniae C718 = experiment: as above; assay type: cell-based, Streptococcus pneumoniae; conditions: mean of three
S. pyogenes ATCC19615 = experiment: as above; assay type: cell-based, Streptococcus pyogenes; conditions: mean of three, in µg/mL
S. epidermidis C621 = assay type: cell-based, Staphylococcus epidermidis; conditions: mean of three; 16 to 20 hours at 35° C.
S. aureus (MRSA) = assay type: cell-based, Staphylococcus aureus; conditions: mean of three; 16 to 20 hours at 35° C.
Escherichia coli 25922 = experiment: microbe, parasite or virus in culture
Excerpt: Synergy between peptide Shiva-10 (SEQ ID NO:4) and various antimicrobial agents was investigated against Escherichia coli 25922.
Synergy between tetracycline and various peptides was investigated against Escherichia coli 25922 MBC. […] When combined with the peptides, the concentration of tetracycline was held at 1.5 ppm.

For FAKLLAKLAKKIL-NH2 [P125], the “paerug9027 (MIC)” value [1] was 100 µg/mL, the “staph6538 (MIC)” value [2] was 10 µg/mL and the “WI38 LD50” value (WI38) was 90 µg/mL. The “yeast (MIC or MFC)” value [3] was 50 µg/mL, the LD50 [4] was “> (> indicates greater than 1000)” and the “HeLaS3 LD50” value (HeLaS3) was 220 µg/mL. The “LD50 SW480” value (SW480) was 125 µg/mL, the “LD50 MCF7” value (MCF7) was 90 µg/mL and the “LD50 BMKC” value (BMKC) was 220 µg/mL. For the same compound, the “PC3 LD50” value (PC3) was 145 µg/mL, the “H1299 LD50” value (H1299) was 76 µg/mL and the “activity against ts Pseudomonas 27853” value ([5]; Table 46) was 31. The “activity against clinical tobramycin resistant strain” value [6] was “greater activity against clinical tobramycin resistant strain 960890198-3c”, the “activity against tobramycin resistant versus tobramycin sensitive Pseudomonas” value [7] was “greater activity against tobramycin resistant (tr) Pseudomonas ATCC 13096 than against tobramycin sensitive (ts) Pseudomonas ATCC 27853” and the “activity against tr Pseudomonas 13096” value [7] was 4. The CC50 at 24 h (in vitro [8]) was 90 µg/mL.

TGFβ gave a Collagen stimulation (collagen) of 60%.

For “MPKWKVFKKIEKVGRNIRNGIVKAGPAIAVLGEAKALG-OH [SB-37 (P5; SEQ ID NO: 3)]”, the “MBC, With doxacycline” value (P. aeruginosa 27853) was 30 µg/mL and the “MBC, Without doxacycline” value (P. aeruginosa 27853) was 200 µg/mL.

With “FAKKLAKKLAKAL-NH2 [P74, FAKKLAKKLAKAL-NH2]” the “paerug9027 (MIC)” value [1] was 5 µg/mL, the “staph6538 (MIC)” value [2] was 15 µg/mL and the “WI38 LD50” value (WI38) was 335 µg/mL. The “yeast (MIC or MFC)” value [3] was 100 µg/mL, the LD50 [4] was “> (> indicates greater than 1000)” and the “HeLaS3 LD50” value (HeLaS3) was 260 µg/mL. For the same compound, the “LD50 SW480” value (SW480) was 340 µg/mL, the “LD50 MCF7” value (MCF7) was 465 µg/mL and the “LD50 BMKC” value (BMKC) was 460 µg/mL. The “PC3 LD50” value (PC3) was 660 µg/mL, the “H1299 LD50” value (H1299) was 670 µg/mL and the “activity against ts Pseudomonas 27853” value ([5]; Table 46) was 125. The “activity against ts Pseudomonas 27853” value ([5]; Table 47) was 125, the “activity against tr Pseudomonas 960890198-3c” value [6] was 25 and the “activity against clinical tobramycin resistant strain” value [6] was “greater activity against clinical tobramycin resistant strain 960890198-3c”. For the same compound, the “activity against tobramycin resistant versus tobramycin sensitive Pseudomonas” value [7] was “greater activity against tobramycin resistant (tr) Pseudomonas ATCC 13096 than against tobramycin sensitive (ts) Pseudomonas ATCC 27853”, the “activity against tr Pseudomonas 13096” value [7] was 16 and the CC50 at 24 h (in vitro [8]) was 335 µg/mL.

In the case of FAKLLKLAAKKLL-NH2 [P56], the “paerug9027 (MIC)” value [1] is reported as 5 µg/mL, the “staph6538 (MIC)” value [2] is reported as 200 µg/mL and the “MIC Nal-comb.” value (P. aeruginosa) is reported as 624 µg/mL. For the same compound, the “FIC Index” value (P. aeruginosa H774) was 1.25, the “MIC Cm-comb.” value (P. aeruginosa H374; MIC of chloramphenicol with peptide at ¼ MIC) was 16 µg/mL and the “MIC Nal-comb.” value (P. aeruginosa H374; MIC of nalidixic acid with peptide at ¼ MIC) was 2500 µg/mL. The “FIC Index” value (P. aeruginosa H374; chloramphenicol + peptide at ¼ MIC) was 1.25, the “FIC Index” value (P. aeruginosa H374; nalidixic acid + peptide at ¼ MIC, FIC=0.25+MIC comb/MIC alone) was 0.75 and the “WI38 LD50” value (WI38) was 250 µg/mL. For the same compound, the “yeast (MIC or MFC)” value [3] was 50 µg/mL, the HC50 at 1 h (in vitro [9]) was 600 µg/mL and the “HeLaS3 LD50” value (HeLaS3) was 300 µg/mL. For the same compound, the “LD50 SW480” value (SW480) was 215 µg/mL, the “LD50 MCF7” value (MCF7) was 500 µg/mL and the “LD50 BMKC” value (BMKC) was 205 µg/mL. For the same compound, the “PC3 LD50” value (PC3) was 435 µg/mL, the “H1299 LD50” value (H1299) was 370 µg/mL and the “activity against ts Pseudomonas 27853” value ([5]; Table 46) was 125. For the same compound, the “activity against ts Pseudomonas 27853” value ([5]; Table 47) was 125, the “activity against tr Pseudomonas 960890198-3c” value [6] was >50 and the “activity against clinical tobramycin resistant strain” value [6] was “greater activity against clinical tobramycin resistant strain 960890198-3c”. The “activity against tobramycin resistant versus tobramycin sensitive Pseudomonas” value [7] was “greater activity against tobramycin resistant (tr) Pseudomonas ATCC 13096 than against tobramycin sensitive (ts) Pseudomonas ATCC 27853”, the “activity against tr Pseudomonas 13096” value [7] was 16 and the CC50 at 24 h (in vitro [8]) was 250 µg/mL.

With FALALKALKKL-NH2 [P165] the “paerug9027 (MIC)” value [1] was 25 µg/mL, the “staph6538 (MIC)” value [2] was 10 µg/mL and the “WI38 LD50” value (WI38) was 470 µg/mL. The “yeast (MIC or MFC)” value [3] was 25 µg/mL, the HC50 at 1 h (in vitro [9]) was 350 µg/mL and the Collagen stimulation (collagen) was 0%. The “HeLaS3 LD50” value (HeLaS3) was 400 µg/mL, the “LD50 SW480” value (SW480) was 240 µg/mL and the “LD50 MCF7” value (MCF7) was 360 µg/mL. The “LD50 BMKC” value (BMKC) was 240 µg/mL, the “PC3 LD50” value (PC3) was 340 µg/mL and the “H1299 LD50” value (H1299) was 56 µg/mL. It also gave a Laminin stimulation (laminin) of 0% and a CC50 at 24 h (in vitro [8]) of 470 µg/mL.

With FAKLLALALKLKL-NH2 [P94] the “paerug9027 (MIC)” value [1] was “> (> indicates greater than 200 μg/mL)”, the “staph6538 (MIC)” value [2] was 10 µg/mL and the S. pyogenes M76 MIC (S. pyogenes M76) was 8 µg/mL. The “S. pneumoniae MIC” value (S. pneumoniae C719) was 128, the “WI38 LD50” value (WI38) was 6 µg/mL and the S. pneumoniae MIC (S. pneumoniae C718) was 64 µg/mL. For the same compound, the “yeast (MIC or MFC)” value [3] was “> (> indicates greater than 200 μg/mL)”, the “S. pyogenes MIC” value (S. pyogenes ATCC19615) was 8 and the HC50 at 1 h (in vitro [9]) was 350 µg/mL. The Collagen stimulation (collagen) was 0%, the “HeLaS3 LD50” value (HeLaS3) was “> (> indicates greater than 1000)” and the “LD50 MCF7” value (MCF7) was 65 µg/mL. For the same compound, the “LD50 BMKC” value (BMKC) was 11 µg/mL, the S. epidermidis C621 MIC (S. epidermidis C621) was 8 µg/mL and the Laminin stimulation (laminin) was 0%. For the same compound, the S. aureus (MRSA) MIC (S. aureus (MRSA)) was 16 µg/mL and the CC50 at 24 h (in vitro [8]) was 6 µg/mL.

For `C[C@H]1c2cccc(O)c2C(O)=C2C(=O)[C@]3(O)C(O)=C(C(N)=O)C(=O)[C@@H](N(C)C)[C@@H]3[C@@H](O)[C@@H]21` [Doxacycline], the MBC of doxacycline (P. aeruginosa 27853; doxacycline itself, printed in column With doxacycline) was 100 µg/mL.

With `CC(C)C[C@H](NC(=O)[C@H](C)NC(=O)[C@H](CC(C)C)NC(=O)[C@H](CCCCN)NC(=O)[C@H](C)NC(=O)[C@H](CC(C)C)NC(=O)[C@H](CCCCN)NC(=O)[C@H](CCCCN)NC(=O)[C@H](C)NC(=O)[C@H](CC(C)C)NC(=O)[C@H](CCCCN)NC(=O)[C@H](C)NC(=O)[C@H](CC(C)C)NC(=O)[C@H](CCCCN)NC(=O)[C@H](CCCCN)NC(=O)[C@H](C)NC(=O)[C@@H](N)Cc1ccccc1)C(N)=O` [FLAK 26AM (P35; SEQ ID NO: 17)] the “MBC, With doxacycline” value (P. aeruginosa 27853) was 32 µg/mL, the “MBC, Without doxacycline” value (P. aeruginosa 27853) was 50 µg/mL and the “MBC, Without tetracycline” value (Escherichia coli 25922; peptide alone) was 50 µg/mL. For the same compound, the “MBC, With tetracycline” value (Escherichia coli 25922; tetracycline held at […]) was 20 µg/mL.
